Measurements from US20230357179A1, “RAF KINASE INHIBITORS AND METHODS OF USE THEREOF” (Deciphera Pharmaceuticals, LLC, priority 2021, published 2023).

Legend:
[1] = molecular target: T1, C-Raf kinase (Homo sapiens, UniProt P04049, Y340D/Y341D); experiment: Biochemical assay for C-Raf.1 (coupled pyruvate kinase/lactate dehydrogenase); conditions: read-out: CRAF.1 IC50
T1 construct: Y340D,; GST (N); purchased Sigma
In short: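 C-Raf (0.43 nM) with MEK 30.1 nM and 1 mM ATP in Tris pH 7.5/MgCl2 buffer, activity coupled via PK/LDH to NADH oxidation (A340), 6 h at 30° C. Rates from 4–5 h window converted to % inhibition versus controls; IC50 by four-parameter fit, 1% DMSO.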

[2] = test system: A375 cells; experiment: A375 cell proliferation assay (1), resazurin, 96-well; assay type: cell-based; conditions: Homo sapiens, A-375, inhibition of cell proliferation
In short: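 Viability was read by resazurin fluorescence at 540 nm excitation and 600 nm emission, using a 440 μM solution added for 5–6 h at the end of culture. IC50 came from the curve fit.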

[3] = test system: WM3928 cells; experiment: WM3928 cell proliferation assay (1), resazurin, 96-well; assay type: cell-based; conditions: inhibition of cell proliferation
Protocol: WM3928 Cell Proliferation Assay (1)
WM3928 cells (#WM3928-01-0001) are obtained from Rockland Immunochemicals Inc (Gilbertsville, PA). Briefly, cells were grown in MCDB 153 medium (Sigma, #M7403, St. Louis, MO) supplemented with 20% Leibovitz's L-15 (ThermoFisher #11415-064, Waltham, MA), 2% heat inactivated fetal bovine serum (ThermoFisher, #A3840001, Waltham, MA), 5 μg/mL Insulin (Bovine Pancreas) (Sigma, #I0516, St. Louis, MO), 1.68 mM Calcium Chloride (Sigma, #C-34006, St. Louis, MO) and 1% Penicillin/Streptomycin/L-Glutamine (ThermoFisher #10378016, Waltham, MA) at 37° C., 5% CO2, and 95% humidity. Cells are expanded until reaching 70-95% confluency at which point they are subcultured or harvested for assay use. A serial dilution of test compound is dispensed into a 96-well black clear bottom plate in triplicate. Three thousand cells are added per well in 200 μL complete growth medium in the 96-well plate. Plates are incubated for 67-72 hours at 37° C., 5% CO2, and 95% humidity. At the end of the incubation, 40 μL of a 440 μM solution of resazurin (Sigma, #199303, St. Louis, MO) in PBS is added to each well of the plate and plates are incubated for an additional 6-7 hours at 37° C., 5% CO2, and 95% humidity. Plates are read on a Synergy2 or equivalent reader (Biotek, Winooski VT) using an excitation of 540 nm and an emission of 600 nm. Data is analyzed using Prism software (GraphPad, San Diego, CA) to calculate IC50 values.

[4] = test system: Miapaca-2 cells; experiment: MiaPaca-2 cell proliferation assay (1), resazurin, 96-well; assay type: cell-based; conditions: Homo sapiens, MIA PaCa-2, inhibition of cell proliferation
Protocol: MiaPaca-2 Cell Proliferation Assay (1)
Miapaca-2 cells (catalog #CRL-1420) are obtained from the American Type Culture Collect (ATTC, Manassas, VA). Briefly, cells were grown in DMEM supplemented with 10% characterized fetal bovine serum (Invitrogen, Carlsbad, CA), 2.5% New Zealand sourced horse serum and 1% Penicillin/Streptomycin/L-Glutamine at 37° C., 5% CO2, and 95% humidity. Cells are expanded until reaching 70-95% confluency at which point they are subcultured or harvested for assay use. A serial dilution of test compound is dispensed into a 96-well black clear bottom plate in triplicate. Three thousand cells are added per well in 200 μL complete growth medium in the 96-well plate. Plates are incubated for 67-72 hours at 37° C., 5% CO2, and 95% humidity. At the end of the incubation, 40 μL of a 440 μM solution of resazurin (Sigma, St. Louis, MO) in PBS is added to each well of the plate and plates are incubated for an additional 5-6 hours at 37° C., 5% CO2, and 95% humidity. Plates are read on a Synergy2 or equivalent reader (Biotek, Winooski VT) using an excitation of 540 nm and an emission of 600 nm. Data is analyzed using Prism software (GraphPad, San Diego, CA) to calculate IC50 values.

T1 sequence (P04049 307-648 Y340D/Y341D): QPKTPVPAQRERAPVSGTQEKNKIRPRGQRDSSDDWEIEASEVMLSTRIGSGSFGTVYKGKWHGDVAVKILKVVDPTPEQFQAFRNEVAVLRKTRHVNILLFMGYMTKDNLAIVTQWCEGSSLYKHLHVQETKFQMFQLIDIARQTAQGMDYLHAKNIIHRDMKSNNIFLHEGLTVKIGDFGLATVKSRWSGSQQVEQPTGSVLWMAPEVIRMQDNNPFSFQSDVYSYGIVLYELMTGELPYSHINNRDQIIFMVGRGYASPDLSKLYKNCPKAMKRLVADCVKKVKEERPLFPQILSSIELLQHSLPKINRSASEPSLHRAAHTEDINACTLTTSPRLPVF

SMILES | IC50 [1] | IC50 [2] | IC50 [3] | IC50 [4]
Cc1ncc(NC(=O)NC[C@H](O)C(C)(C)C)cc1-c1ccnc(-c2ccnc(NC(=O)C3CC3)c2)c1 [Example 102] | ≤ 100 nM | 1000 to 10000 nM | 1000 to 10000 nM | 1 to 10 µM
Cc1cc(F)c(NC(=O)NCCC(C)(C)F)cc1-c1cccc(-c2ccnc3[nH]ncc23)c1 [Example 100] | ≤ 100 nM | 1000 to 10000 nM | 500 to 1000 nM | 1 to 10 µM
COC(=O)Nc1cc(-c2cc(-c3cc(NC(=O)NCCC(C)(C)F)cnc3C)cc(OCCO)n2)ccn1 [Example 165] | ≤ 100 nM | 1000 to 10000 nM | 1000 to 10000 nM | –
Cc1cc(F)c(NC(=O)NCCC(F)F)cc1-c1cc(OCCO)nc(-c2ccnc(NC(=O)C3CC3)c2)c1 [Example 105] | ≤ 100 nM | 1000 to 10000 nM | 500 to 1000 nM | 1 to 10 µM
COC(=O)Nc1cc(-c2nc(OCCO)cc(-c3cc(NC(=O)NC4CC(C)(C)C4)c(F)cc3C)n2)ccn1 [Example 158] | ≤ 100 nM | ≤ 100 nM | ≤ 100 nM | 1 to 10 µM
Cc1ncc(NC(=O)NC2CC(C)(C)C2)cc1-c1cc(OCCO)nc(-c2ccnc(NC(=O)C3CC3)c2)n1 [Example 144] | ≤ 100 nM | 500 to 1000 nM | 500 to 1000 nM | 1 to 10 µM
COC(=O)Nc1cc(-c2cc(-c3cc(NC(=O)NCCC(C)(C)C)cnc3C)ccn2)ccn1 [Example 109] | ≤ 100 nM | 1000 to 10000 nM | 100 to 500 nM | 1 to 10 µM
Cc1ncc(NC(=O)NCCC2(C)CC2)cc1-c1cc(OCCO)nc(-c2ccnc3c2CC(=O)N3)c1 [Example 112] | ≤ 100 nM | 1000 to 10000 nM | 1000 to 10000 nM | 1 to 10 µM
COC1(CCNC(=O)Nc2cc(-c3ccnc(-c4ccnc(NC(=O)C5CC5)c4)n3)c(C)cc2F)CC1 [Example 117] | ≤ 100 nM | 1000 to 10000 nM | – | 1 to 10 µM
COC(=O)Nc1cc(-c2cnnc(-c3cc(NC(=O)NCCC(C)(C)OC)c(F)cc3C)c2)ccn1 [Example 140] | 100 to 500 nM | 1000 to 10000 nM | – | 1 to 10 µM
Cc1ncc(NC(=O)NCCC(C)(C)C)cc1-c1cc(-c2ccnc(NC(=O)C3CC3)c2)cnn1 [Example 120] | ≤ 100 nM | 1000 to 10000 nM | 1000 to 10000 nM | 1 to 10 µM
Cc1ncc(NC(=O)NCCC2(C)CC2)cc1-c1ccnc(-c2ccnc(NC(=O)C3CC3)c2)n1 [Example 107] | ≤ 100 nM | 1000 to 10000 nM | 100 to 500 nM | 1 to 10 µM
Cc1cc(F)c(NC(=O)NCCC2(C)COC2)cc1-c1cc(OCCO)nc(-c2ccnc3[nH]ncc23)c1 [Example 110] | 100 to 500 nM | 1000 to 10000 nM | 1000 to 10000 nM | 1 to 10 µM
COC(=O)Nc1cc(-c2cc(-c3cc(NC(=O)NCCC(C)C)c(F)cc3C)cc(OCCO)n2)ccn1 [Example 115] | ≤ 100 nM | 100 to 500 nM | ≤ 100 nM | 1 to 10 µM
Cc1ncc(NC(=O)NCCC2(C)CC2)cc1-c1cc(OCCO)nc(-c2ccnc(NC(=O)C3CC3)c2)n1 [Example 133] | ≤ 100 nM | 500 to 1000 nM | – | 1 to 10 µM
COC(=O)Nc1cc(-c2nccc(-c3cc(NC(=O)NCCC4(OC)CC4)cnc3C)n2)ccn1 [Example 143] | 100 to 500 nM | 1000 to 10000 nM | – | 1 to 10 µM
Cc1cc(F)c(NC(=O)NCCC(C)C)cc1-c1cc(OCCO)nc(-c2ccnc(NC(=O)C3CC3)c2)c1 [Example 106] | ≤ 100 nM | 100 to 500 nM | ≤ 100 nM | 1 to 10 µM
COC1(CCNC(=O)Nc2cc(-c3cccc(-c4cc(NC(=O)C5CC5)ncn4)c3)c(C)cc2F)CC1 [Example 104] | ≤ 100 nM | 1000 to 10000 nM | 100 to 500 nM | 1 to 10 µM

SMILES | IC50 [1] | IC50 [2] | IC50 [3] | IC50 [4]
CNC(=O)c1cc(-c2cnnc(-c3cc(NC(=O)NCCC(C)(C)C)c(F)cc3C)c2)ccn1 [Example 119] | 100 to 500 nM | 1000 to 10000 nM | 1000 to 10000 nM | 1 to 10 µM
COC(=O)Nc1cc(-c2nc(OCCO)cc(-c3cc(NC(=O)NCCC(C)(C)F)c(F)cc3C)n2)ccn1 [Example 161] | ≤ 100 nM | 100 to 500 nM | ≤ 100 nM | –
Cc1cc(F)c(NC(=O)NCCC(C)(C)C)cc1-c1cc(N2CCOCC2)nc(N2CCOCC2)c1 [Example 10] | ≤ 100 nM | 100 to 500 nM | 100 to 500 nM | –
Cc1cc(F)c(NC(=O)NCC23CC(F)(C2)C3)cc1-c1cc(OCCO)nc(-c2ccnc3[nH]ncc23)c1 [Example 111] | ≤ 100 nM | 1000 to 10000 nM | 1000 to 10000 nM | 1 to 10 µM
Cc1cc(F)c(NC(=O)NCCC(C)(C)F)cc1-c1nccc(-c2ccnc(NC(=O)C3CC3)c2)n1 [Example 114] | ≤ 100 nM | 1000 to 10000 nM | 500 to 1000 nM | 1 to 10 µM
Cc1cc(F)c(NC(=O)NCCC(C)(C)C)cc1-c1cc(OCCO)nc(C2=CCOCC2)c1 [Example 7] | ≤ 100 nM | 1000 to 10000 nM | 100 to 500 nM | 1 to 10 µM
Cc1cc(F)c(NC(=O)NC2CC3(COC3)C2)cc1-c1cc(OCCO)nc(-c2ccnc3[nH]ncc23)c1 [Example 101] | ≤ 100 nM | 1000 to 10000 nM | 1000 to 10000 nM | 1 to 10 µM
COC(=O)Nc1cc(-c2cnnc(-c3cc(NC(=O)N4CCC(CC(F)(F)F)C4)c(F)cc3C)c2)ccn1 (stereo not shown) [Example 150] | ≤ 100 nM | 1000 to 10000 nM | 1000 to 10000 nM | –
Cc1ccc(NC(=O)Nc2cccc(C(F)(F)F)c2)cc1-c1cc(OCCO)nc(N2CCOCC2)c1 [Example 3, 1-(3-(2-(2-hydroxyethoxy)-6-morpholinopyridin-4-yl)-4-methylphenyl)-3-(3-(trifluoromethyl)phenyl)urea] | ≤ 100 nM | 500 to 1000 nM | – | 1 to 10 µM
COC(=O)Nc1cc(-c2cccc(-c3cc(NC(=O)NCCC4(C)CC4)cnc3C)c2)ncn1 [Example 170] | ≤ 100 nM | 500 to 1000 nM | 100 to 500 nM | –
COC(=O)Nc1cc(-c2cc(-c3cc(NC(=O)NCCC4(OC)CC4)c(F)cc3C)ccn2)ccn1 [Example 145] | ≤ 100 nM | 1000 to 10000 nM | – | 1 to 10 µM
COC(C)(C)CCNC(=O)Nc1cc(-c2ccnc(-c3ccnc(NC(=O)C4CC4)c3)n2)c(C)cc1F [Example 108] | ≤ 100 nM | 500 to 1000 nM | 100 to 500 nM | 1 to 10 µM
Cc1cc(F)c(NC(=O)NCCC(C)(C)F)cc1-c1cc(OCCO)nc(-c2ccnc3[nH]ncc23)c1 [Example 94] | ≤ 100 nM | 500 to 1000 nM | 100 to 500 nM | 1 to 10 µM
COC(=O)Nc1cc(-c2cc(-c3cc(NC(=O)NC4CC(C)(C)C4)cnc3C)cc(OCCO)n2)ccn1 [Example 156] | ≤ 100 nM | 1000 to 10000 nM | 100 to 500 nM | –
COC(=O)Nc1cc(-c2cnnc(-c3cc(NC(=O)NCCC(C)(C)F)c(F)cc3C)c2)ccn1 [Example 141] | ≤ 100 nM | 1000 to 10000 nM | – | 1 to 10 µM
Cc1cc(F)c(NC(=O)NCCC(C)(C)F)cc1-c1cc(OCCO)nc(-c2ccnc3[nH]ccc23)c1 [Example 97] | ≤ 100 nM | 1000 to 10000 nM | 100 to 500 nM | 1 to 10 µM
COC(=O)Nc1cc(-c2cc(-c3cc(NC(=O)NCCC4(C)CC4)cnc3C)ccn2)ccn1 [Example 103] | ≤ 100 nM | 1000 to 10000 nM | 500 to 1000 nM | 1 to 10 µM
COC(=O)Nc1cc(-c2nccc(-c3cc(NC(=O)NCCC4(OC)CC4)c(F)cc3C)n2)ccn1 [Example 146] | ≤ 100 nM | 1000 to 10000 nM | – | 1 to 10 µM
